Patent publication US10729157B2, “Methods for regulating weight and size of animals” (Oragenics, Inc., priority 2004, dated 2020)
Like-named read-outs stand apart in the source and are kept apart here.

Assays:
[1] = rats on a high glycine diet
Source text: Blood samples were withdrawn from the tail vein of the rats under study and sent to Charles River Laboratories for Mutli-Analyte Profile testing. […] Am J Physiol Regul Integr Comp Physiol, 2004. […] Nahrung, 1980. 24(7):663-71; Sugiyama et al., Dietary sulfur-containing amino acids and glycine as determinant factors in plasma cholesterol regulation in growing rats. J Nutr Sci Vitaminol (Tokyo), 1985. […] Pol J Pharmacol, 2003. […] Nutrition Research, 1999. 19(12):1777-1789; Yoshida et al., Effects of addition of arginine, cystine, and glycine to the bovine milk-simulated amino acid mixture on the level of plasma and liver cholesterol in rats. J Nutr Sci Vitaminol (Tokyo), 1988. 34(6):567-76; Olson et al., Effect of amino acid diets upon serum lipids in man. Am J Clin Nutr, 1970. […] Vopr Med Khim, 1984. 30(2):78-80; Yagasaki et al., Effects of dietary methionine, cystine, and glycine on endogenous hypercholesterolemia in hepatoma-bearing rats. J Nutr Sci Vitaminol (Tokyo), 1986. […] J Biol Chem, 1990. 265(10):5910-6.

[2] = Glycine added to the diet of laboratory animals (general statement)
abdominal fat [3] = settings: ZDF rats, 20% glycine diet, at necropsy
Source text: (§1) Adult male Zucker diabetic fatty (ZDF) rats were randomly assigned in treatment groups of 3 rats in each group to diets comprising 20% glycine in their feed or a non-supplemented diet. ZDF rats are obese, hyperlipidemic, and insulin resistant. Weight measurements were obtained on the indicated day of the study. The analyst undertaking the weight measurement was blinded relative to the diet of the animal for which the observation was being recorded. The bars represent±1 standard error of the weights of the rats in each group on the indicated observation day. Data was analyzed using a One-Way Analysis of Variance and subjected to post-hoc analysis using Dunnett's Multiple Comparison Test. […] Measurements of the abdominal fat content of each rat were obtained at necropsy (FIG. 7).

[4] = adult male ZDF rats, 20% glycine diet vs non-supplemented, day 15 through day 36
Source text: as §1

[5] = for size and weight after switch to diet without glycine supplementation: 4 weeks glycine diet then 10% to 0%, within one month; for growth (length) / weight gain: glycine added to diet
Source text: Animals treated for 4 weeks with diet supplemented with glycine were switched to diet containing no glycine supplementation (FIGS. 18 and 19, 10% to 0%). […] Animals treated for 4 weeks with diet supplemented with glycine were switched to diet containing no glycine supplementation (FIGS. 20 and 21, 10% to 0%).

[6] = remark: listed apart in the source
Source text: Adult female Sprague-Dawley rats were randomly assigned in treatment groups of 3 rats in each group to diets comprising 5, 10, 15, or 20% glycine in their feed or a non-supplemented diet. Weight measurements were obtained on the indicated day of the study. The analyst undertaking the weight measurement was blinded relative to the diet of the animal for which the observation was being recorded. The bars represent±1 standard error of the weights of the rats in each group on the indicated observation day. […] Data was analyzed using a One-Way Analysis of Variance and subjected to post-hoc analysis using Dunnett's Multiple Comparison Test.

BAD = tested on: BAD
Experimental: Adult male Sprague-Dawley rats were randomly assigned in treatment groups of 3 rats in each group to diets comprising 5% or 20% of glycine in their feed or a non-supplemented diet. On day 20 of the study the animals were euthanized and the adipose tissue obtained at necropsy. Total proteins were extracted from the adipose tissue.
Assay of the tissue extracts for the ability to phosphorylate BAD at serine position 136 was performed as follows: One mg of tissue extract was added to BAD agarose (Upstate, Waltham, Mass.). The reaction volume was adjusted to 1 ml using RIPA buffer (with anti-phosphatases and anti-proteases) (Tris-HCl [pH 7.4] 50 mM; NP-40 1%; Na deoxycholate 0.25%; NaCl 150 mM; EDTA 1 mM; PMSF 1 mM; Protease Arrest 100 ul; sodium orthovanadate 1 mM; sodium fluoride 1 mM) and incubated for 0.5 hr at 30° C. The agarose beads were collected by centrifugation (5 sec at 12,000× g). The supernatant was removed and the beads washed 3× with ice cold TBS. The BAD-agarose was resuspended in 40 μl of sample buffer, boiled for 5 min, and centrifuged (5 min at 12,000× g). Seven microliters of sample were electrophoresed on a 15% gel (Tris-Glycine). The protein was transferred by western blotting to a nitrocellulose membrane and blocked with 5% NFM in TTBS at 4° C. with shaking. The membrane was washed with 2% NFM in TTBS. Each lane was blotted with rabbit anti-phospho-BAD 136 antibody at (1:1000 in 2% NFM/TTBS) for 2 hrs at room temperature. The blots were washed three times for 5 min with TTBS. The blots were incubated with goat anti-Rabbit-HRP (1:5000 in 2% NFM/TTBS). The blots were washed 3× for 5 min with TTBS and 2× 5 min with TBS. Visualization of phosphorylated BAD was accomplished with a chemiluminesence substrate (Pierce Super-Signal Substrate™).

[7] = tested on: 3T3-L1 cells differentiated into adipocytes
[8] = remark: listed apart in the source
Source text: Rats were randomly divided, caged separately, and fed water ad libitum and diet TD 80406 diet (Harlan Teklad, Madison, Wis.). The TD 80406 diet has about 1-2% glycine present in the lactalbumin component and is considered a non-supplemented diet.
Adult (180 day old) male Fisher rats were randomly assigned in treatment groups of 10 rats in each group to diets comprising 5% or 20% glycine in their feed or a non-supplemented diet. Animal and food weight measurements were obtained on the indicated day of the study. The analyst undertaking the weight measurement was blinded relative to the diet of the animal for which the observation was being recorded. The bars represent±1 standard error of the weights of the rats in each group on the indicated observation day.
(§2) The identical experiment was performed with female adult (180 day old) Fisher rats.

abdominal fat [9] = tested on: abdominal fat
Experimental: Five rats from each treatment group were chosen at random and euthanized on day 30 of the study. Measurements of the abdominal fat content of each rat were obtained at necropsy (FIG. 2). The analyst undertaking the measurement was blinded relative to the treatment group of the animal for which the observation was being recorded. Data was analyzed using a One-Way Analysis of Variance and subjected to post-hoc analysis using Dunnett's Multiple Comparison Test.
as §2

abdominal fat [10] = settings: adult female Sprague-Dawley rats, glycine from 5% to 20% in diet vs non-supplemented, day 30
Source text: Adult female Sprague-Dawley rats were randomly assigned in treatment groups of 3 rats in each group to diets comprising 5, 10, 15, or 20% glycine in their feed or a non-supplemented diet. The rats in each treatment group were euthanized on day 30 of the study. Measurements of the abdominal fat content of each rat were obtained at necropsy. The analyst undertaking the measurement was blinded relative to the treatment group of the animal for which the observation was being recorded. Data was analyzed using a One-Way Analysis of Variance and subjected to post-hoc analysis using Dunnett's Multiple Comparison Test.

[11] = adult female Fisher rats compared with males

SMILES: NCC(=O)O [glycine]
- adiponectin levels [1]: increase in a manner trending towards significance
- leptin levels [1]: Decrease in leptin levels, trending toward significance
- serum HDL level [1]: statistically significant (p≤0.05) reduction
- serum cholesterol level [1]: statistically significant (p≤0.05) reduction
- serum triglyceride level [1]: statistically significant (p≤0.05) reduction
- gross findings at necropsy (15% glycine and 85% TD80406 diet for 6 weeks, rats 24 days old at start): No gross lesions or treatment related abnormalities other than weight
- blood chemistry and complete blood counts (15% glycine diet for 6 weeks vs control diet): No differences
- histopathological examination of tissues (one animal fed high glycine diet, brain, lung, liver, adrenal gland, kidneys, urinary bladder, heart, stomach, intestines): no microscopic changes from normal histology
- weight loss ([2]; dietary glycine at high levels (20% by weight)): significant weight loss
- weight ([2]; glycine added to the diet of laboratory animals, rodent strains and dogs): dose-dependent loss in weight
- side-effects ([2]; optimal and super-optimal doses, prolonged administration): no deleterious side-effects
- abdominal fat content (abdominal fat [3]): statistically significant (p≤0.05) less abdominal fat
- weight [4]: statistically significant decrease in weight
- size and weight after switch to diet without glycine supplementation ([5]; immature female rats): same size and weight as the control animals
- growth (length) ([5]; immature female rats): dose-dependent reduction
- weight gain ([5]; immature female rats): dose-dependent reduction
- size and weight after switch to diet without glycine supplementation ([5]; immature male rats): same size and weight as the control animals
- growth (length) ([5]; immature male rats): dose-dependent reduction
- weight gain ([5]; immature male rats): dose-dependent reduction
- weight ([6]; adult female Sprague-Dawley rats, 20% glycine diet vs non-supplemented, day 15 through day 36): statistically significant decrease in weight
- weight loss ([6]; female Sprague-Dawley rats, high glycine in the diet): rapid significant weight loss
- ability of WAT protein extracts to phosphorylate BAD at serine position 136 (BAD; WAT of treated animals, preliminary data): did not have the ability to phosphorylate BAD
- phosphorylation state of BAD at tyrosine 136 (BAD; liver tissue extracts): no such decrease
- phosphorylation state of BAD at tyrosine 136 (BAD; muscle extracts): no such decrease
- loss of BAT tissue (BAD; preliminary experiments, glycine-fed rats): no significant loss
- phosphorylation of BAD at tyrosine 136 (BAD; white adipose tissue (WAT), adult male rats, 5% or 20% glycine diet, day 20): dose dependent decrease
- apoptosis by TUNEL staining ([7]; glycine in media equivalent to 2× the normal circulating levels in the blood, preliminary experiments): positive TUNEL staining
- TUNEL staining ([7]; high concentrations of glycine in the medium vs non-treated cells): increased staining for TUNEL
- effect on weight loss and abdominal fat content [8, 11]: somewhat more pronounced in the females than in the males
- weight ([8]; adult male Fisher rats, 20% glycine diet vs 5% glycine or non-supplemented diet, day 14-30): statistically lighter
- weight after return to non-supplemented diet ([8]; adult male Fisher rats, 20% glycine group returned to non-supplemented diet on day 30, vs control after day 32): no statistical difference
- weight at end of Recovery Phase ([8]; treated adult female Fisher rats vs control): did not rebound to the level of the control animals
- reduction in abdominal fat (abdominal fat [9]; [11]): greater than that observed for the male
- abdominal fat content (abdominal fat [9]; adult male Fisher rats, 20% glycine diet vs 5% glycine or non-supplemented diet, day 30): statistically significant less abdominal fat
- abdominal fat content (abdominal fat [10]): statistically significant less abdominal fat
